According to PubChem BioAssay (NCI):
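Exposure lasted 48 hours, with cells grown in 96-well plates and compounds tested at five concentrations. GI50 is the concentration that inhibits growth by half. The concentration for full growth arrest is given as TGI.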

How the values were obtained:
Test in all cases: NCI anticancer screen, dose series, 48 h
[1] = test system: SR leukemia
[2] = test system: MALME-3M melanoma
[3] = test system: PC-3 prostate
[4] = test system: HCT-15 colon
[5] = test system: MDA-MB-435
[6] = test system: U251 CNS
[7] = test system: HS 578T breast
[8] = test system: NCI-H460 lung
[9] = test system: DU-145 prostate
[10] = test system: SK-MEL-2 melanoma
[11] = test system: HOP-62 NSCLC
[12] = test system: A498 renal
[13] = test system: OVCAR-5 ovarian
[14] = test system: OVCAR-3 ovarian
[15] = test system: SNB-19 CNS
[16] = test system: OVCAR-8 ovarian
[17] = test system: SF-268 CNS
[18] = test system: COLO 205 colon
[19] = test system: K-562 leukemia
[20] = test system: LOX IMVI melanoma
[21] = test system: HT29 colon
[22] = test system: SF-539 CNS
[23] = test system: BT-549 breast
[24] = test system: CCRF-CEM leukemia
[25] = test system: HL-60(TB) leukemia
[26] = test system: UACC-62 melanoma
[27] = test system: SK-MEL-28 melanoma
[28] = test system: NCI-H23 lung
[29] = test system: HCT-116 colon
[30] = test system: M14 melanoma
[31] = test system: ACHN renal
[32] = test system: KM12 colon
[33] = test system: IGROV1 ovarian
[34] = test system: TK-10 renal
[35] = test system: 786-0 renal
[36] = test system: HCC-2998 colon
[37] = test system: MCF7 breast
[38] = test system: MDA-MB-231 breast
[39] = test system: SF-295 CNS
[40] = test system: CAKI-1 renal
[41] = test system: A549 NSCLC
[42] = test system: HOP-92 NSCLC
[43] = test system: RXF 393 renal
[44] = test system: NCI-H522 lung
[45] = test system: SW-620 colon
[46] = test system: SN12C renal
[47] = test system: UO-31 renal
[48] = test system: RPMI-8226 leukemia
[49] = test system: NCI/ADR-RES ovarian
[50] = test system: UACC-257 melanoma
[51] = test system: EKVX NSCLC
[52] = test system: SK-MEL-5 melanoma
[53] = test system: OVCAR-4 ovarian
[54] = test system: NCI-H226 lung
[55] = test system: MOLT-4 leukemia
[56] = test system: SK-OV-3 ovarian
[57] = test system: SNB-75 CNS
[58] = test system: T-47D breast

## CCCNC(=O)Nc1ccc2c(c1)Cc1cc(N(CCCl)CCCl)ccc1-2
[1]
  TGI: > 100 µM
[2]
  TGI: > 100 µM
[3]
  TGI: > 100 µM
[4]
  TGI: > 100 µM
[5]
  TGI: 68.9 µM
[6]
  TGI: > 100 µM
[7]
  TGI: 61.4 µM
[8]
  TGI: > 100 µM
[9]
  TGI: 60.9 µM
[10]
  TGI: 62.9 µM
[11]
  TGI: > 100 µM
[12]
  TGI: 33.4 µM
[13]
  TGI: > 100 µM
[14]
  TGI: 54.4 µM
[15]
  TGI: 94.8 µM
[16]
  TGI: > 100 µM
[17]
  TGI: > 100 µM
[18]
  TGI: 26.7 µM
[19]
  TGI: > 100 µM
[20]
  TGI: > 100 µM
[21]
  TGI: 17.8 µM
[22]
  TGI: 66.2 µM
[23]
  TGI: 85 µM
[24]
  TGI: > 100 µM
[25]
  TGI: > 100 µM
[26]
  TGI: > 100 µM
[27]
  TGI: 35.7 µM
[28]
  TGI: > 100 µM
[29]
  TGI: > 100 µM
[30]
  TGI: > 100 µM
[31]
  TGI: 33.8 µM
[32]
  TGI: 56.5 µM
[33]
  TGI: 50.6 µM
[34]
  TGI: > 100 µM
[35]
  TGI: > 100 µM
[36]
  TGI: 67.6 µM
[37]
  TGI: 77.5 µM
[38]
  TGI: > 100 µM
[39]
  TGI: 44.2 µM
[40]
  TGI: > 100 µM
[41]
  TGI: > 100 µM
[42]
  TGI: 67.8 µM
[43]
  TGI: 34.2 µM
[44]
  TGI: 41 µM
[45]
  TGI: > 100 µM
[46]
  TGI: > 100 µM
[47]
  TGI: 82.2 µM
[48]
  TGI: > 100 µM
[49]
  TGI: > 100 µM
[50]
  TGI: > 100 µM
[51]
  TGI: 77.4 µM
[52]
  TGI: 33 µM

## CC(C)(C)c1cc2c(O)c(c1)COCc1cc(C(C)(C)C)cc(c1O)COCc1cc(C(C)(C)C)cc(c1O)COC2
[1]
  TGI: > 100 µM
[53]
  TGI: > 100 µM
[3]
  TGI: > 100 µM
[4]
  TGI: > 100 µM
[5]
  TGI: > 100 µM
[6]
  TGI: > 100 µM
[8]
  TGI: > 100 µM
[9]
  TGI: > 100 µM
[10]
  TGI: > 100 µM
[54]
  TGI: > 100 µM
[11]
  TGI: > 100 µM
[12]
  TGI: > 100 µM
[13]
  TGI: > 100 µM
[14]
  TGI: > 100 µM
[15]
  TGI: > 100 µM
[16]
  TGI: > 100 µM
[18]
  TGI: > 100 µM
[19]
  TGI: > 100 µM
[20]
  TGI: > 100 µM
[23]
  TGI: > 100 µM
[24]
  TGI: > 100 µM
[25]
  TGI: > 100 µM
[26]
  TGI: > 100 µM
[27]
  TGI: > 100 µM
[28]
  TGI: > 100 µM
[29]
  TGI: > 100 µM
[30]
  TGI: > 100 µM
[31]
  TGI: > 100 µM
[32]
  TGI: > 100 µM
[33]
  TGI: > 100 µM
[34]
  TGI: > 100 µM
[35]
  TGI: > 100 µM
[36]
  TGI: > 100 µM
[55]
  TGI: > 100 µM
[56]
  TGI: > 100 µM
[37]
  TGI: > 100 µM
[39]
  TGI: > 100 µM
[57]
  TGI: > 100 µM
[41]
  TGI: > 100 µM
[42]
  TGI: > 100 µM
[43]
  TGI: > 100 µM
[58]
  TGI: > 100 µM
[45]
  TGI: > 100 µM
[47]
  TGI: > 100 µM
[48]
  TGI: > 100 µM
[49]
  TGI: > 100 µM
[50]
  TGI: > 100 µM
[51]
  TGI: > 100 µM
[52]
  TGI: > 100 µM

## COc1ccc(/C=C/C(=O)/C=C(/C=C/c2ccc(OC)c(OC)c2OC)OB(F)F)c(OC)c1OC
[1]
  GI50: 0.278 µM
  TGI: > 100 µM
[53]
  GI50: 5.09 µM
  TGI: > 100 µM
[2]
  GI50: 3.02 µM
  TGI: 62.4 µM
[3]
  GI50: 2.82 µM
  TGI: > 100 µM
[5]
  GI50: 2.15 µM
  TGI: > 100 µM
[6]
  GI50: 0.973 µM
  TGI: 8.09 µM
[8]
  GI50: 1.66 µM
  TGI: 3.52 µM
[9]
  GI50: 3.13 µM
  TGI: > 100 µM
[10]
  GI50: 2.36 µM
  TGI: 8.09 µM
[11]
  GI50: 3.89 µM
  TGI: > 100 µM
[12]
  GI50: 3.35 µM
  TGI: 10.2 µM
[13]
  GI50: 3.3 µM
  TGI: > 100 µM
[15]
  GI50: 2.35 µM
  TGI: > 100 µM
[16]
  GI50: 1.16 µM
  TGI: > 100 µM
[17]
  GI50: 2.93 µM
  TGI: > 100 µM
[18]
  GI50: 1.94 µM
  TGI: 6.84 µM
[19]
  GI50: 1.28 µM
  TGI: > 100 µM
[20]
  GI50: 0.721 µM
  TGI: 2.4 µM
[22]
  GI50: 3.11 µM
  TGI: > 100 µM
[24]
  GI50: 0.366 µM
  TGI: 2.08 µM
[25]
  GI50: 0.469 µM
  TGI: 3.96 µM
[26]
  GI50: 1.47 µM
  TGI: 4.69 µM
[29]
  GI50: 0.399 µM
  TGI: 3.33 µM
[30]
  GI50: 2.74 µM
  TGI: > 100 µM
[32]
  GI50: 2.09 µM
  TGI: 5.08 µM
[33]
  GI50: 1.89 µM
  TGI: > 100 µM
[34]
  GI50: 9.03 µM
  TGI: > 100 µM
[36]
  GI50: 1.94 µM
  TGI: 3.93 µM
[55]
  GI50: 0.425 µM
  TGI: 4.74 µM
[56]
  GI50: 3.77 µM
  TGI: > 100 µM
[37]
  GI50: 0.502 µM
  TGI: > 100 µM
[38]
  GI50: 3.1 µM
  TGI: > 100 µM
[57]
  GI50: 4.84 µM
  TGI: > 100 µM
[41]
  GI50: 3.44 µM
  TGI: > 100 µM
[42]
  GI50: 7.46 µM
  TGI: > 100 µM
[43]
  GI50: 1.35 µM
  TGI: 2.92 µM
[58]
  GI50: 3.62 µM
  TGI: > 100 µM
[44]
  GI50: 1.35 µM
  TGI: 4.62 µM
[45]
  GI50: 0.58 µM
  TGI: 4.34 µM
[46]
  GI50: 2.01 µM
  TGI: > 100 µM
[47]
  GI50: 0.96 µM
  TGI: 3.65 µM
[48]
  GI50: 0.466 µM
  TGI: 2.77 µM
[49]
  GI50: 3.28 µM
  TGI: > 100 µM
[50]
  GI50: 9.33 µM
  TGI: > 100 µM
[51]
  GI50: 2.96 µM
  TGI: > 100 µM
[52]
  GI50: 1.77 µM
  TGI: 3.91 µM
